For test [1], the target named is human GABAA α1β3γ2 receptor (Homo sapiens (Human), UniProt P14867+P18507). Nature of the test: Radioligand binding assay, competition for [3H]Flumazenil, HEK293F cells. As to conditions: for LogSel: Log[Ki α1β3γ2 (nM)/Ki α2β2γ1 (nM)]; for γ2/γ1 Selectivity Ratio: Ki α1β3γ2 (nM)/Ki α2β2γ1 (nM). Here is the method:
The affinity of compounds at GABAA γ2 subunit-containing receptors was measured by competition for [^3H]Flumazenil (81.1 Ci/mmol; Roche) binding to HEK293F cells expressing human (transiently transfected) receptors of composition α1β3γ2.
Harvested pellets from HEK293F cells expressing the different GABAA γ2 receptor subtypes were resuspended in Mannitol Buffer pH 7.2-7.4 and processed as described above for the cells expressing the GABAA γ1 subunit-containing receptors.
Assays were incubated to equilibrium for 1 hour at 4° C. and harvested onto GF/C uni-filters (Packard) by filtration using a Packard harvester and washing with ice-cold wash buffer (50 mM Tris; pH 7.5). After anhydrousing, filter-retained radioactivity was detected by liquid scintillation counting. Ki values were calculated using Excel-Fit (Microsoft) and are the means of two determinations.

Test [2] addresses human GABAA α5β2γ1 receptor (Homo sapiens (Human), UniProt P31644+Q8N1C3). Nature of the test: Radioligand binding assay, competition for [3H]RO7239181, membranes from HEK293F cells. Here is the method: The affinity of compounds at GABAA γ1 subunit-containing receptors was measured by competition for [^3H]RO7239181 (67.3 Ci/mmol; Roche) binding to membranes from HEK293F cells (ThermoFisher R79007) expressing human (transiently transfected) receptors of composition α5β2γ1, α2β2γ1, α1β2γ1. For better protein expression of the α2 subunit-containing receptors, the 28 amino acid long signal peptide (Met1 to Ala28) of the human GABAA α2 subunit was substituted by the 31 amino acid long signal peptide (Met1 to Ser31) of human GABAA α5 subunit.
(§1) Harvested pellets from HEK293F cells expressing the different GABAA receptor subtypes were resuspended in Mannitol Buffer pH 7.2-7.4 (Mannitol 0.29M, Triethylamine 10 mM, Acetic acid 10 mM, EDTA 1 mM plus protease inhibitors (20 tablets Complete, Roche Diagnostics Cat. No. 05 056 489 001 per liter)), washed two times and then resuspended at 1:10 to 1:15 dilution in the same buffer. Cell disruption was performed by stirring the suspension in a Parr vessel #4637 at 435 psi for 15 minutes, and then the suspensions were centrifuged at 1000×g for 15 minutes at 4° C. (Beckman Avanti J-HC; rotor JS-4.2). The supernatant (S1) was transferred in a 21 Schott flask and the pellet (P1) was resuspended with Mannitol Buffer up to 175 ml. The resuspended pellet was transferred into a 250 ml Corning centrifugal beaker and centrifuged at 1500×g for 10 minutes at 4° C. (Beckman Avanti J-HC; rotor JS-4.2). The supernatant (S1) was then transferred in the 21 Schott flask and the pellet was discarded. The supernatants (S1) were centrifuged in 500 ml Beckman polypropylene centrifugal beaker at 15′000×g for 30 minutes at 4° C. (Beckman Avanti J-20 XP; rotor JLA-10.500). The pellet (P2) was resuspended with Mannitol Buffer 1:1 and frozen at −80° C. The supernatant (S2) was centrifuged in 100 ml Beckman polypropylene centrifugal tubes at 48000×g for 50 minutes at 4° C. (Beckman Avanti J-20 XP; rotor JA-18). The supernatant (S3) was discarded and the pellet (P3) was resuspended with 1:1 Mannitol Buffer. The P2 and P3 protein concentration was determined with the BIORAD Standard assay method with bovine serum albumin as standard and measured on the NANO-Drop 1000. The membrane suspension was aliquots (500 μl per tube) and stored at −80° C. until required.
(§2) Membrane homogenates were resuspended and polytronised (Polytron PT1200E Kinematica AG) in Potassium Phosphate 10 mM, KCl 100 mM binding buffer at pH 7.4 to a final assay concentration determined with a previous experiment.
Radioligand binding assays were carried out in a volume of 200 μL (96-well plates) which contained 100 μL of cell membranes, [^3H]RO7239181 at a concentration of 1.5 nM (α5β2γ1) or 20-30 nM (α1β2γ1, α2β2γ1) and the test compound in the range of [0.3-10000]×10^−9 M. Nonspecific binding was defined by 10×10^−6 (α5β2γ1) and 30×10^−6 M RO7239181 and typically represented less than 5% (α5β2γ1) and less than 20% (α1β2γ1, α2β2γ1) of the total binding. Assays were incubated to equilibrium for 1 hour at 4° C. and then, membranes were filtered onto unifilter (96-well white microplate with bonded GF/C filters preincubated 20-50 minutes in 0.3% Polyethylenimine) with a Filtermate 196 harvester (Packard BioScience) and washed 4 times with cold Potassium Phosphate 10 mM pH 7.4, KCl 100 mM binding buffer. After anhydrousing, filter-retained radioactivity was detected by liquid scintillation counting. Ki values were calculated using Excel-Fit (Microsoft) and are the means of two determinations.
Representative test results, obtained by the above described assay measuring binding affinity to HEK293 cells expressing human (h) receptors, are shown in the Table 1.

Test [3] deals with human GABAA α2β2γ1 receptor (Homo sapiens (Human), UniProt P47869+Q8N1C3). The test is described as above. The protocol:
The affinity of compounds at GABAA γ1 subunit-containing receptors was measured by competition for [^3H]RO7239181 (67.3 Ci/mmol; Roche) binding to membranes from HEK293F cells (ThermoFisher R79007) expressing human (transiently transfected) receptors of composition α5β2γ1, α2β2γ1, α1β2γ1.
as §1, §2
Assays were incubated to equilibrium for 1 hour at 4° C. and then, membranes were filtered onto unifilter (96-well white microplate with bonded GF/C filters preincubated 20-50 minutes in 0.3% Polyethylenimine) with a Filtermate 196 harvester (Packard BioScience) and washed 4 times with cold Potassium Phosphate 10 mM pH 7.4, KCl 100 mM binding buffer. After anhydrousing, filter-retained radioactivity was detected by liquid scintillation counting. Ki values were calculated using Excel-Fit (Microsoft) and are the means of two determinations.

Where [4] appears, read: read-out: Ki h-GABAA α2β2γ1, [3H]RO7239181 20-30 nM, HEK293F membranes, 1 hour at 4° C., mean of two determinations.

Like-named read-outs stand apart in the source and are kept apart here.

Turning to `CN1C(=O)CN=C(c2cc(O)ccc2F)c2c1ccc(Cl)c2Cl` [Example 1, 6,7-dichloro-5-(2-fluoro-5-hydroxy-phenyl)-1-methyl-3H-1,4-benzodiazepin-2-one], the inhibition constant (Ki) in test [1] stood at 28.7 nM; in test [1] (read-out: Ki h-GABAA α1β3γ2, [3H]Flumazenil 1 nM, HEK293F membranes, 1 hour at 4° C., mean of two determinations), 28.7 nM; in test [2], 0.34 nM; in test [3], 2.27 nM; in test [3] (setting [4]) it was 2.27 nM. The same compound gave a LogSel in test [1] of 1.1.
Take `Cc1ccc2c(c1Cl)C(c1cc(O)ccc1F)=NCC(=O)N2C` [Example 2, 6-chloro-5-(2-fluoro-5-hydroxy-phenyl)-1,7-dimethyl-3H-1,4-benzodiazepin-2-one]: the inhibition constant (Ki) in test [1] worked out at 58.2 nM; in test [2], 0.53 nM; in test [3], 1.49 nM; in test [3] (setting [4]) it was 1.49 nM. In test [1], this compound showed a LogSel of 1.59.
With `Cc1nnc2n1-c1ccc(Cl)c(Cl)c1C(c1cc(O)ccc1F)=NC2` [Example 3, 3-(7,8-dichloro-1-methyl-4H-[1,2,4]triazolo[4,3-a][1,4]benzodiazepin-6-yl)-4-fluoro-phenol], the Ki in test [1] stood at 34.3 nM; in test [2], 0.36 nM; in test [3], 1.45 nM; in test [3] (setting [4]), 1.45 nM. Moreover, in test [1], the “γ2/γ1 Selectivity Ratio” value amounted to 23.7. In test [1], this compound yielded a LogSel of 1.37.
Take `Cc1nnc2n1-c1ccc(Cl)c(Cl)c1C(c1cc(O)ccc1F)=N[C@H]2C` [Example 4, 4-fluoro-3-[(4S)-7,8-dichloro-1,4-dimethyl-4H-[1,2,4]triazolo[4,3-a][1,4]benzodiazepin-6-yl]phenol]: the inhibition constant Ki in test [1] was determined as 81.7 nM; in test [2] it was 0.38 nM; in test [3] it was 1.99 nM; in test [3] (setting [4]), 1.99 nM. For the same compound, the “γ2/γ1 Selectivity Ratio” value in test [1] came out at 41.1. Also, the LogSel in test [1] came to 1.61.
`C[C@@H]1N=C(c2cc(O)ccc2F)c2c(ccc(Cl)c2Cl)-n2ccc(=O)nc21` [Example 5, (5S)-8,9-dichloro-7-(2-fluoro-5-hydroxy-phenyl)-5-methyl-5H-pyrimido[1,2-a][1,4]benzodiazepin-3-one]: the Ki was found to be 255 nM in test [1], 0.39 nM in test [2], 1.4 nM in test [3] and 1.4 nM in test [3] (setting [4]). The “γ2/γ1 Selectivity Ratio” value in test [1] is listed as 182.4. In test [1], this compound had a LogSel of 2.26.
Take `O=c1ccn2c(n1)CN=C(c1cc(O)ccc1F)c1c-2ccc(Cl)c1Cl` [Example 6, 8,9-dichloro-7-(2-fluoro-5-hydroxy-phenyl)-5H-pyrimido[1,2-a][1,4]benzodiazepin-3-one]: the Ki in test [1] was 46.7 nM; in test [2], 0.39 nM; in test [3], 2.18 nM; in test [3] (setting [4]), 2.18 nM. The “γ2/γ1 Selectivity Ratio” value in test [1] was 21.4. This compound showed a LogSel in test [1] of 1.33.
`COC1CN(C(=O)c2nc3n(n2)-c2ccc(Cl)c(Cl)c2C(c2cc(O)ccc2F)=NC3)C1` [Example 7, [7,8-dichloro-6-(2-fluoro-5-hydroxy-phenyl)-4H-[1,2,4]triazolo[1,5-a][1,4]benzodiazepin-2-yl]-(3-methoxyazetidin-1-yl)methanone]: the Ki was determined as 34.6 nM in test [1], 1.4 nM in test [2], 2.22 nM in test [3] and 2.22 nM in test [3] (setting [4]). In addition, the “γ2/γ1 Selectivity Ratio” value in test [1] is 15.6. The LogSel in test [1] was found to be 1.19.
On to `CN1C(=O)CN=C(c2cc(O)ccc2F)c2c1ccc(C(F)(F)F)c2Cl` [Example 8, 6-chloro-5-(2-fluoro-5-hydroxy-phenyl)-1-methyl-7-(trifluoromethyl)-3H-1,4-benzodiazepin-2-one], for which the inhibition constant Ki in test [1] was found to be 80.9 nM; in test [2] it was 0.44 nM; in test [3], 2.35 nM; in test [3] (setting [4]), 2.35 nM. The “γ2/γ1 Selectivity Ratio” value in test [1] was 34.4. The LogSel in test [1] came out at 1.54.
For `Cc1nnc2n1-c1ccc(C(F)(F)F)c(Cl)c1C(c1cc(O)ccc1F)=NC2` [Example 9, 3-[7-chloro-1-methyl-8-(trifluoromethyl)-4H-[1,2,4]triazolo[4,3-a][1,4]benzodiazepin-6-yl]-4-fluoro-phenol], the Ki in test [1] worked out at 106 nM; in test [2], 0.86 nM; in test [3] it was 3.25 nM; in test [3] (setting [4]) it was 3.25 nM. Moreover, in test [1], the “γ2/γ1 Selectivity Ratio” value is given as 32.6. Besides, the LogSel in test [1] turned out to be 1.51.
Turning to `Oc1ccc(F)c(C2=NCc3nncn3-c3ccc(C(F)(F)F)c(Cl)c32)c1` [Example 10, 3-[7-chloro-8-(trifluoromethyl)-4H-[1,2,4]triazolo[4,3-a][1,4]benzodiazepin-6-yl]-4-fluoro-phenol], the Ki in test [1] worked out at 89.9 nM; in test [2] it was 0.27 nM; in test [3] it was 1.04 nM; in test [3] (setting [4]), 1.04 nM. Moreover, the “γ2/γ1 Selectivity Ratio” value in test [1] is on record as 86.5. The compound also had a LogSel in test [1] of 1.94.
For `O=c1ccn2c(n1)CN=C(c1cc(O)ccc1F)c1c-2ccc(C(F)(F)F)c1Cl` [Example 11, 8-chloro-7-(2-fluoro-5-hydroxy-phenyl)-9-(trifluoromethyl)-5H-pyrimido[1,2-a][1,4]benzodiazepin-3-one], the Ki in test [1] amounted to 359 nM; in test [2] it was 1.54 nM; in test [3], 1.88 nM; in test [3] (setting [4]), 1.88 nM. In addition, the “γ2/γ1 Selectivity Ratio” value in test [1] is reported as 191.3. This compound displayed a LogSel in test [1] of 2.28.
With `CN1C(=O)CN=C(c2c(F)ccc(O)c2F)c2c1ccc(Cl)c2Cl` [Example 12, 6,7-dichloro-5-(2,6-difluoro-3-hydroxy-phenyl)-1-methyl-3H-1,4-benzodiazepin-2-one], the Ki was 371 nM in test [1], 0.46 nM in test [2], 2.12 nM in test [3] and 2.12 nM in test [3] (setting [4]). In addition, the “γ2/γ1 Selectivity Ratio” value in test [1] is recorded as 175.4. For the same compound, the LogSel in test [1] came to 2.24.

The record behind these values is patent US12344614B2, “Benzodiazepine derivatives as GABA a GAMMA1 PAM” (Hoffmann-La Roche Inc., priority 2021, dated 2025).
